Consider ten compounds from patent US10815205B2, “Amide-substituted phenyltriazole derivatives and uses thereof” (BAYER PHARMA AKTIENGESELLSCHAFT, priority 2016, dated 2020).

Experiment [1] concerns the target T1, human V1a receptor (Homo sapiens, UniProt P37288).
T1 construct: expressed in transfected cells; host or cells: CHO K1 (ATCC), also stably transfected with a modified aequorin
Nature of the experiment: Cellular in vitro assay for vasopressin receptor activity, V1a receptor cell line (aequorin luminescence). Particulars: Table 1A; for IC50: CHO cell line transfected with human V1a receptor, [Arg8]-vasopressin at EC50, read-out: IC50 hV1a; for ratio IC50 hV2/hV1a: selectivity V1a over V2. The experiment is classed as cell-based. The procedure: (§1) B-1. Cellular In Vitro Assay for Determining Vasopressin Receptor Activity
(§2) The identification of agonists and antagonists of the V1a and V2 vasopressin receptors from humans, rats and dogs as well as the quantification of the activity of the compounds of the invention is carried out using recombinant cell lines. These cell lines originally derive from a hamster's ovary epithelial cell (Chinese Hamster Ovary, CHO K1, ATCC: American Type Culture Collection, Manassas, Va. 20108, USA). The test cell lines constitutively express the human, rat or dog V1a or V2 receptors. In case of the Gαq-coupled V1a receptors, cells are also stably transfected with a modified form of the calcium-sensitive photoproteins aequorin (human and rat V1a) or obe-lin (dog V1a), which, after reconstitution with the cofactor coelenterazine, emit light when there are increases in free calcium concentrations [Rizzuto R, Simpson A W, Brini M, Pozzan T, Nature 358, 325-327 (1992); Illarionov B A, Bondar V S, Illarionova V A, Vysotski E S, Gene 153 (2), 273-274 (1995)]. The resulting vasopressin receptor cells react to stimulation of the recombinantly expressed V1a receptors by intracellular release of calcium ions, which can be quantified by the resulting photoprotein luminescence. The Gs-coupled V2 receptors are stably transfected into cell lines expressing the gene for firefly luciferase under control of a CRE-responsible promoter. Activation of V2 receptors induces the activation of the CRE-responsive promoter via cAMP increase, thereby inducing the expression of firefly luciferase. The light emitted by photoproteins of V1a cell lines as well as the light emitted by firefly luciferase of V2 cell lines corresponds to the activation or inhibition of the respective vasopressin receptor. The bioluminescence of the cell lines is detected using a suitable luminometer [Milligan G, Marshall F, Rees S, Trends in Pharmacological Sciences 17, 235-237 (1996)].
Vasopressin V1a Receptor Cell Lines:
On the day before the assay, the cells are plated out in culture medium (DMEM/F12, 2% FCS, 2 mM glutamine, 10 mM HEPES, 5 μg/ml coelenterazine) in 384-well microtiter plates and kept in a cell incubator (96% humidity, 5% v/v CO2, 37° C.). On the day of the assay, test compounds in various concentrations are placed for 10 minutes in the wells of the microtiter plate before the agonist [Arg^8]-vasopressin at EC50 concentration is added. The resulting light signal is measured immediately in a luminometer.

In experiment [2] the target is T2, human V2 receptor (Homo sapiens, UniProt P30518).
T2 construct: expressed in transfected cells; host or cells: CHO K1 (ATCC) expressing firefly luciferase under a CRE-responsive promoter
T2 sequence (P30518 whole entry): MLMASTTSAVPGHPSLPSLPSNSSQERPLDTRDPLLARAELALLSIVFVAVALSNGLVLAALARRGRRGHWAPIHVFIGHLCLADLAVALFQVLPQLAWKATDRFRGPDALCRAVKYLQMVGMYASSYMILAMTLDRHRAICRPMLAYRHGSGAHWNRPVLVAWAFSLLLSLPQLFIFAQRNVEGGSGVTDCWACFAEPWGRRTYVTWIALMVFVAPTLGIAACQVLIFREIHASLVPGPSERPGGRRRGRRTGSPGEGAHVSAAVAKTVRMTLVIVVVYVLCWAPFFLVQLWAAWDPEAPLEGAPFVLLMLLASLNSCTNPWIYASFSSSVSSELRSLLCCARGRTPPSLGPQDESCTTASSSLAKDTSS
Nature of the experiment: Cellular in vitro assay for vasopressin receptor activity, V2 receptor cell line (CRE-luciferase). It counts as cell-based. Particulars: Table 1A; CHO cell line transfected with human V2 receptor; [Arg8]-vasopressin at EC50; read-out: IC50 hV2. The procedure: as §1, §2
Vasopressin V2 Receptor Cell Lines:
On the day before the assay, the cells are plated out in culture medium (DMEM/F12, 2% FCS, 2 mM glutamine, 10 mM HEPES) in 384-well microtiter plates and kept in a cell incubator (96% humidity, 5% v/v CO2, 37° C.). On the day of the assay, test compounds in various concentrations and the agonist [Arg^8]-vasopressin at EC50 concentration are added together to the wells, and plates are incubated for 3 hours in a cell incubator. Upon addition of the cell lysis reagent Triton™ and the substrate luciferin, luminescence of firefly luciferase is measured in a luminometer.

T1 sequence (P37288 whole entry): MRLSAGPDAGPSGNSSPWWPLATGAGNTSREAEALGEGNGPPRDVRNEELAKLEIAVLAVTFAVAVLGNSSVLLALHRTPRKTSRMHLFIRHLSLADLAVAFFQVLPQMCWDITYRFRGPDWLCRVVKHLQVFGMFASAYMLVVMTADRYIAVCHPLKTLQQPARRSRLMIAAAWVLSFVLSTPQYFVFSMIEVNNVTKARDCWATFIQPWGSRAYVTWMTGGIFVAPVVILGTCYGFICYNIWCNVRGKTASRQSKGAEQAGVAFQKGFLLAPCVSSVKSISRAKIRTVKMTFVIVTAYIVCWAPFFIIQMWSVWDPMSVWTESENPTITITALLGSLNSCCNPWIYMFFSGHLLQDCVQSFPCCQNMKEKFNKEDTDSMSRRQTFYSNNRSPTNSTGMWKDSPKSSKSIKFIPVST

As usually defined, the IC50 is the midpoint of a concentration-inhibition curve. As to `CCOc1ccccc1-n1nc(Cn2nc(-c3ccc(Cl)cc3)n(C[C@H](O)C(F)(F)F)c2=O)nc1C(N)=O` [Example 5, 3-({3-(4-Chlorophenyl)-5-oxo-4-[(2S)-3,3,3-trifluoro-2-hydroxypropyl]-4,5-dihydro-1H-1,2,4-triazol-1-yl}methyl)-1-(2-ethoxyphenyl)-1H-1,2,4-triazole-5-carboxamide], the IC50 in experiment [1] came to 1.6 nM; in experiment [2] it was 38.5 nM. The “ratio IC50 hV2/hV1a” value in experiment [1] is recorded as 24.1.

As to `CS(=O)(=O)c1ccccc1-n1nc(Cn2nc(-c3ccc(Cl)cc3)n(C[C@H](O)C(F)(F)F)c2=O)nc1C(N)=O` [Example 7, 3-({3-(4-Chlorophenyl)-5-oxo-4-[(2S)-3,3,3-trifluoro-2-hydroxypropyl]-4,5-dihydro-1H-1,2,4-triazol-1-yl}methyl)-1-[2-(methylsulfonyl)phenyl]-1H-1,2,4-triazole-5-carboxamide], in experiment [1], the IC50 was found to be 17.5 nM and the “ratio IC50 hV2/hV1a” value was 40.7. Moreover, the IC50 in experiment [2] was determined as 712 nM.

`NC(=O)c1nc(Cn2nc(-c3ccc(Cl)cc3)n(C[C@@H](O)C(F)(F)F)c2=O)nn1-c1ccccc1C(F)(F)F` [Example 2, 3-({3-(4-Chlorophenyl)-5-oxo-4-[(2R)-3,3,3-trifluoro-2-hydroxypropyl]-4,5-dihydro-1H-1,2,4-triazol-1-yl}methyl)-1-[2-(trifluoromethyl)phenyl]-1H-1,2,4-triazole-5-carboxamide]: in experiment [1], the IC50 is 2.35 nM and the “ratio IC50 hV2/hV1a” value is 74.5. The IC50 in experiment [2] is 175 nM.

`NC(=O)c1nc(Cn2nc(-c3ccc(Cl)cc3)n(C[C@H](O)C(F)(F)F)c2=O)nn1-c1ccccc1OC(F)(F)F` [Example 3, 3-({3-(4-Chlorophenyl)-5-oxo-4-[(2S)-3,3,3-trifluoro-2-hydroxypropyl]-4,5-dihydro-1H-1,2,4-triazol-1-yl}methyl)-1-[2-(trifluoromethoxy)phenyl]-1H-1,2,4-triazole-5-carboxamide]: the IC50 amounted to 1.25 nM in experiment [1] and 75.5 nM in experiment [2]. In addition, in experiment [1], the “ratio IC50 hV2/hV1a” value is reported as 60.4.

As for `NC(=O)c1nc(Cn2nc(-c3ccc(Cl)cc3)n(C[C@@H](O)C(F)(F)F)c2=O)nn1-c1ccccc1OC(F)(F)F` [Example 4, 3-({3-(4-Chlorophenyl)-5-oxo-4-[(2R)-3,3,3-trifluoro-2-hydroxypropyl]-4,5-dihydro-1H-1,2,4-triazol-1-yl}methyl)-1-[2-(trifluoromethoxy)phenyl]-1H-1,2,4-triazole-5-carboxamide], in experiment [1], the IC50 was determined as 9.65 nM and the “ratio IC50 hV2/hV1a” value stood at 68.9. Further, the IC50 in experiment [2] turned out to be 665 nM.

For the compound `CCOc1ccccc1-n1nc(Cn2nc(-c3ccc(Cl)cc3)n(C[C@@H](O)C(F)(F)F)c2=O)nc1C(N)=O` [Example 10, 3-({3-(4-Chlorophenyl)-5-oxo-4-[(2R)-3,3,3-trifluoro-2-hydroxypropyl]-4,5-dihydro-H-1,2,4-triazol-1-yl}methyl)-1-(2-ethoxyphenyl)-1H-1,2,4-triazole-5-carboxamide], in experiment [1], the half-inhibitory concentration (IC50) came out at 8.2 nM and the “ratio IC50 hV2/hV1a” value came to 108.5. Further, in experiment [2], the IC50 is 890 nM.

In the case of `NC(=O)c1nc(Cn2nc(-c3ccc(Cl)cc3)n(C[C@H](O)C(F)(F)F)c2=O)nn1-c1ccccc1C(F)(F)F` [Example 1, 3-({3-(4-Chlorophenyl)-5-oxo-4-[(2S)-3,3,3-trifluoro-2-hydroxypropyl]-4,5-dihydro-H-1,2,4-triazol-1-yl}methyl)-1-[2-(trifluoromethyl)phenyl]-1H-1,2,4-triazole-5-carboxamide], in experiment [1], the IC50 is 0.58 nM and the “ratio IC50 hV2/hV1a” value came out at 41.4. In experiment [2], the half-maximal inhibitory concentration (IC50) worked out at 23.9 nM.

As for `CNC(=O)c1ccccc1-n1nc(Cn2nc(-c3ccc(Cl)cc3)n(C[C@H](O)C(F)(F)F)c2=O)nc1C(N)=O` [Example 6, 3-({3-(4-Chlorophenyl)-5-oxo-4-[(2S)-3,3,3-trifluoro-2-hydroxypropyl]-4,5-dihydro-1H-1,2,4-triazol-1-yl}methyl)-1-[2-(methylcarbamoyl)phenyl]-1H-1,2,4-triazole-5-carboxamide], in experiment [1], the IC50 is 12.9 nM and the “ratio IC50 hV2/hV1a” value stood at 75.6. Also, the IC50 in experiment [2] worked out at 975 nM.

Take `NC(=O)c1nc(Cn2nc(-c3ccc(Cl)cc3)n(CC(=O)C(F)(F)F)c2=O)nn1-c1ccccc1OC(F)(F)F` [Example 9, 3-{[3-(4-chlorophenyl)-5-oxo-4-(3,3,3-trifluoro-2-oxopropyl)-4,5-dihydro-H-1,2,4-triazol-1-yl]methyl}-1-[2-(trifluoromethoxy)phenyl]-1H-1,2,4-triazole-5-carboxamide (ketone form) or 3-{[3-(4-chlorophenyl)-5-oxo-4-(3,3,3-trifluoro-2,2-dihydroxypropyl)-4,5-dihydro-1H-1,2,4-triazol-1-yl]methyl}-1-[2-(trifluoromethoxy)phenyl]-1H-1,2,4-triazole-5-carboxamide (hydrate form)]: in experiment [1], the half-maximal inhibitory concentration (IC50) was 8.95 nM and the “ratio IC50 hV2/hV1a” value is given as 11.9. The half-inhibitory concentration (IC50) in experiment [2] came to 106 nM.

Take `NC(=O)c1nc(Cn2nc(-c3ccc(Cl)cc3)n(CC(=O)C(F)(F)F)c2=O)nn1-c1ccccc1C(F)(F)F` [Example 8, 3-{[3-(4-chlorophenyl)-5-oxo-4-(3,3,3-trifluoro-2-oxopropyl)-4,5-dihydro-H-1,2,4-triazol-1-yl]methyl}-1-[2-(trifluoromethyl)phenyl]-1H-1,2,4-triazole-5-carboxamide (ketone form) or 3-{[3-(4-chlorophenyl)-5-oxo-4-(3,3,3-trifluoro-2,2-dihydroxypropyl)-4,5-dihydro-H-1,2,4-triazol-1-yl]methyl}-1-[2-(trifluoromethyl)phenyl]-1H-1,2,4-triazole-5-carboxamide (hydrate form)]: in experiment [1], the concentration for half-maximal inhibition (IC50) came to 1.85 nM and the “ratio IC50 hV2/hV1a” value was 18.2. Moreover, in experiment [2], the 50% inhibitory concentration (IC50) came out at 33.7 nM.
